# From patent US20080009418A1, “Selective Inhibitors” (Alchemia LTD., priority 2004, published 2008)
# What was measured:
# Human neurokinin (NK1) = target: T1, Human neurokinin (NK1) (Homo sapiens, UniProt P25103); test: Radioligand binding, human neurokinin NK1 membranes, filtration, [125I]-Substance P; settings: compound at 10 μM; for A8 radioligand binding inhibition: human neurokinin NK1 membranes
# T1 construct: purchased Perkin Elmer Biosignal
# In short: (§1)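 Percent inhibition of radioligand binding measured on recombinant human membranes: NK1 with [125I]-Substance P, KOP with [3H]-Diprenorphine. Incubation 1 h at room temperature, then harvest onto 0.3% PEI-soaked filters, cold Tris-HCl pH 7.4 washes and scintillation counting; non-specific binding from reference ligand wells.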
# Human Melanocortin (MC3) = target: T2, Human Melanocortin (MC3) (Homo sapiens, UniProt P41968); test: Radioligand binding, human melanocortin MC3 membranes, FlashPlate, [125I]-NDP-αMSH; settings: compound at 10 μM; for A3 radioligand binding inhibition: human melanocortin MC3 membranes
# T2 construct: purchased Perkin Elmer Biosignal
# T2 sequence (P41968 whole entry): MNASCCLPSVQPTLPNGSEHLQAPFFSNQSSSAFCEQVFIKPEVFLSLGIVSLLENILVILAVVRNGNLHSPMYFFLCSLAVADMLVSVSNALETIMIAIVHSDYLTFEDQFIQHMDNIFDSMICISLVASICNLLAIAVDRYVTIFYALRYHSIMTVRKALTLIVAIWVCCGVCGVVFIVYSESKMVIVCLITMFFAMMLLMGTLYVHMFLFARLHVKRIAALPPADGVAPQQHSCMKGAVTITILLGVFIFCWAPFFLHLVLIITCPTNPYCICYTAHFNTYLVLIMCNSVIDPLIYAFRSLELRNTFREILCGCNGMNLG
# In short: (§2)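 Cloned human receptor membranes were coated onto FlashPlate wells and incubated with radioligand and compound (added from a 0.5 mM DMSO daughter plate) for 1 hour at room temperature in the dark. Scintillation counting gave percent inhibition, with DMSO defining total and reference ligand defining non-specific binding.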
# Human κ-Opioid (KOP) = target: T3, Human κ-Opioid (KOP) (Homo sapiens, UniProt P41145); test: Radioligand binding, human κ-opioid (KOP) membranes, filtration, [3H]-Diprenorphine; settings: compound at 10 μM; for A2 radioligand binding inhibition: human κ-opioid (KOP) membranes
# T3 construct: purchased Perkin Elmer Biosignal
# T3 sequence (P41145 whole entry): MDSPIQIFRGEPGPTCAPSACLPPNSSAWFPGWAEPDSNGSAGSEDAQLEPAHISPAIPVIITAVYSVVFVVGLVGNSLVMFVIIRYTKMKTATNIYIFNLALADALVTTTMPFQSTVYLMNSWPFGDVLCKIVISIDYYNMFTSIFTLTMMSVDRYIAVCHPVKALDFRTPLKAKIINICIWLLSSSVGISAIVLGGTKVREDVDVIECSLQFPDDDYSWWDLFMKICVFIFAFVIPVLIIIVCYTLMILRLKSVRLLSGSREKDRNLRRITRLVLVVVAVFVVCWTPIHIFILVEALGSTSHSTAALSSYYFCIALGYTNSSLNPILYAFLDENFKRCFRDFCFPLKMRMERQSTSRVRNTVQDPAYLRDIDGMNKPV
# In short: as §1
# Mouse urotensin (mUR2) = target: T4, Mouse urotensin (mUR2) (Mus musculus, UniProt Q8VIH9); test: Radioligand binding, mouse urotensin mUR2 membranes, FlashPlate, [125I]-Urotensin II; settings: compound at 10 μM; for A11 radioligand binding inhibition: mouse urotensin mUR2 membranes
# T4 construct: purchased Perkin Elmer Biosignal
# T4 sequence (Q8VIH9 1-385): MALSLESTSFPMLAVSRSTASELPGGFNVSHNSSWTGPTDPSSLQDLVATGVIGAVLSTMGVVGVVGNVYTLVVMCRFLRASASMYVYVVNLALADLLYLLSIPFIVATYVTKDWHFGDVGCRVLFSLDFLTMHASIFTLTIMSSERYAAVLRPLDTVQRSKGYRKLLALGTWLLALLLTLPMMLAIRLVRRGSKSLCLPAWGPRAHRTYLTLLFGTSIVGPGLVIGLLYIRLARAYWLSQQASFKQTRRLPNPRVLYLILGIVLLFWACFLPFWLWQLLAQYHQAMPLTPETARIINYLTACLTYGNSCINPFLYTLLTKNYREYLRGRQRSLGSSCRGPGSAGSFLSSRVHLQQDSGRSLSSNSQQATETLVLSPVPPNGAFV
# In short: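 Cloned mouse urotensin (mUR2) receptor membranes from Perkin Elmer Biosignal were immobilized in FlashPlate microplates using a proprietary coating. Each well got 19.5 μl buffer, then 0.5 μl of DMSO, reference ligand, or compound. Adding 5 μl of [125I]-Urotensin II, diluted to 5× final concentration in binding buffer, started binding. Plates were sealed with TopSeal-A and incubated 1 hour at room temperature in the dark. Wells were counted for 30 seconds each on a TopCount after a 60-second delay, and percentage inhibition was calculated.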
# Human μ-opioid (MOP) = target: T5, Human μ-opioid (MOP) (Homo sapiens, UniProt P35372); test: Radioligand binding, human μ-opioid (MOP) membranes, FlashPlate, [3H]-Naloxone; settings: compound at 10 μM; for A7 radioligand binding inhibition: human μ-opioid (MOP) membranes
# T5 construct: purchased Perkin Elmer Biosignal
# T5 sequence (P35372 whole entry): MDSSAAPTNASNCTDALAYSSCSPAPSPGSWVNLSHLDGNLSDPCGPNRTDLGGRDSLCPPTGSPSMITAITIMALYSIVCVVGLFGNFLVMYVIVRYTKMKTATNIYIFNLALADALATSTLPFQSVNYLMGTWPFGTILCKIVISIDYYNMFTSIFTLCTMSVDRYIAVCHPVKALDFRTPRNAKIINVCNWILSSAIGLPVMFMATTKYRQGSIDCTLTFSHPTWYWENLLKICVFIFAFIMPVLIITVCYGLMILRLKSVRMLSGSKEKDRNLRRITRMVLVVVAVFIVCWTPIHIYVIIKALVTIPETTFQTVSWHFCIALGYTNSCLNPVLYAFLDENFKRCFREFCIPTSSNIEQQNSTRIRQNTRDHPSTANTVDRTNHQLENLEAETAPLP
# In short: as §2
# Human opioid (ORL1) = target: T6, Human opioid (ORL1) (Homo sapiens, UniProt P41146); test: Radioligand binding, human opioid ORL1 membranes, FlashPlate, [125I]-Nociceptin; settings: compound at 10 μM; for A10 radioligand binding inhibition: human ORL1 membranes
# T6 construct: purchased Perkin Elmer Biosignal
# T6 sequence (P41146 whole entry): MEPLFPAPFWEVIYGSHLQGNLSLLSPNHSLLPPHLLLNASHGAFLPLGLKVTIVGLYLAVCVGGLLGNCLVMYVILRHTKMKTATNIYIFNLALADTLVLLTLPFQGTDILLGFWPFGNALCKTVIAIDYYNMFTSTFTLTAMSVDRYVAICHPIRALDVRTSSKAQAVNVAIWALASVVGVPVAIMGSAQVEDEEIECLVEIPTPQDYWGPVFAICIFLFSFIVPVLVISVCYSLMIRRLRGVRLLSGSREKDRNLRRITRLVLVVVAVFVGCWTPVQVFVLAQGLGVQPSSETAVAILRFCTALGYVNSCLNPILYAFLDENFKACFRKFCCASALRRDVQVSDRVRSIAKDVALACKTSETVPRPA
# In short: as §2
# Human Melanocortin (MC4) = target: T7, Human Melanocortin (MC4) (Homo sapiens, UniProt P32245); test: Radioligand binding, human melanocortin MC4 membranes, FlashPlate, [125I]-NDP-αMSH; settings: compound at 10 μM; for A4 radioligand binding inhibition: human melanocortin MC4 membranes
# T7 construct: purchased Perkin Elmer Biosignal
# T7 sequence (P32245 whole entry): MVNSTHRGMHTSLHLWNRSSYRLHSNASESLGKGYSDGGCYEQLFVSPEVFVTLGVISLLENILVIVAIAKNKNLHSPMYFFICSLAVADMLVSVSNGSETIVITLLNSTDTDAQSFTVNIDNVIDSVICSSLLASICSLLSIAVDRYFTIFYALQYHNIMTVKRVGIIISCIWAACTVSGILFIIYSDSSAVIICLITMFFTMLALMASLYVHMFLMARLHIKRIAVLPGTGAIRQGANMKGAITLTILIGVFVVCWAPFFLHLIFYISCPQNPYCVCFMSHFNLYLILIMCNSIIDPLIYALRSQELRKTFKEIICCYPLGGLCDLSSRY
# In short: as §2
# Human δ-opioid (DOP) = target: T8, Human δ-opioid (DOP) (Homo sapiens, UniProt P41143); test: Radioligand binding, human δ-opioid (DOP) membranes, FlashPlate, [3H]-Bremazocine; settings: compound at 10 μM; for A1 radioligand binding inhibition: human δ-opioid (DOP) membranes
# T8 construct: purchased Perkin Elmer Biosignal
# T8 sequence (P41143 whole entry): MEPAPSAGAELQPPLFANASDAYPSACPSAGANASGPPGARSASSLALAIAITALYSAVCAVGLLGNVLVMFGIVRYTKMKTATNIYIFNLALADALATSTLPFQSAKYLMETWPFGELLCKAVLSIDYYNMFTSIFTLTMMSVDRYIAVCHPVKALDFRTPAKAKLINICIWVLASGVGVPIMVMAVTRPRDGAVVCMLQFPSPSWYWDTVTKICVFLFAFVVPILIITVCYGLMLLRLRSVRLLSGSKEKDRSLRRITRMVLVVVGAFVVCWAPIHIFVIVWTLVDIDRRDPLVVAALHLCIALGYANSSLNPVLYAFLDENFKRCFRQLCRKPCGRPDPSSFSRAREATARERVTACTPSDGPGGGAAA
# In short: as §2
# Human melanocortin (MC5) = target: T9, Human melanocortin (MC5) (Homo sapiens, UniProt P33032); test: Radioligand binding, human melanocortin MC5 membranes, FlashPlate, [125I]-NDP-αMSH; settings: compound at 10 μM; for A5 radioligand binding inhibition: human melanocortin MC5 membranes
# T9 construct: purchased Perkin Elmer Biosignal
# T9 sequence (P33032 whole entry): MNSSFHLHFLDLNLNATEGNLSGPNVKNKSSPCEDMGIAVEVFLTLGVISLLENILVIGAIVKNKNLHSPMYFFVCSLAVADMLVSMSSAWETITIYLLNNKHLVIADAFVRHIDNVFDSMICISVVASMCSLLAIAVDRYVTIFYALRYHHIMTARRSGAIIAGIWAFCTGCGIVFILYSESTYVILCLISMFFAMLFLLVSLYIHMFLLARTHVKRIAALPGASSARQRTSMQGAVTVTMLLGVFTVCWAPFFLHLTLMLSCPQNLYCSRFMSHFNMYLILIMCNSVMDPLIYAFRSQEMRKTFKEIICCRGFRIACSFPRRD
# In short: as §2
# [1] = target: T10, Human melanin-concentrating hormone (MCH1) (Homo sapiens, UniProt Q99705); test: Radioligand binding, human melanin-concentrating hormone MCH1 membranes, FlashPlate, [125I]-S36057; settings: compound at 10 μM; for A6 radioligand binding inhibition: human MCH1 membranes
# T10 construct: purchased Perkin Elmer Biosignal
# T10 sequence (Q99705 whole entry): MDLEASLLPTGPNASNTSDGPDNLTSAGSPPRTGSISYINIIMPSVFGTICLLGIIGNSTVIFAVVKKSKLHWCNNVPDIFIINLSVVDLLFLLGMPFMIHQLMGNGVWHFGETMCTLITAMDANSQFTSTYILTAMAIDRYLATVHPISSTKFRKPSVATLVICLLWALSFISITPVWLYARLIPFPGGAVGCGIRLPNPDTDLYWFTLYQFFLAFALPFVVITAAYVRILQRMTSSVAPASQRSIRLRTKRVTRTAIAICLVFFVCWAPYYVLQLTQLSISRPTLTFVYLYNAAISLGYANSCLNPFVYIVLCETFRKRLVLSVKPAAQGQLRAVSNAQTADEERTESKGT
# In short: as §2
# [2] = target: T11, Human neuropeptide Y (NPY-Y1) (Homo sapiens, UniProt P25929); test: Radioligand binding, human neuropeptide Y NPY-Y1 membranes, FlashPlate, [125I]-PYY; settings: compound at 10 μM; for A9 radioligand binding inhibition: human NPY-Y1 membranes
# T11 construct: purchased Perkin Elmer Biosignal
# T11 sequence (P25929 1-384): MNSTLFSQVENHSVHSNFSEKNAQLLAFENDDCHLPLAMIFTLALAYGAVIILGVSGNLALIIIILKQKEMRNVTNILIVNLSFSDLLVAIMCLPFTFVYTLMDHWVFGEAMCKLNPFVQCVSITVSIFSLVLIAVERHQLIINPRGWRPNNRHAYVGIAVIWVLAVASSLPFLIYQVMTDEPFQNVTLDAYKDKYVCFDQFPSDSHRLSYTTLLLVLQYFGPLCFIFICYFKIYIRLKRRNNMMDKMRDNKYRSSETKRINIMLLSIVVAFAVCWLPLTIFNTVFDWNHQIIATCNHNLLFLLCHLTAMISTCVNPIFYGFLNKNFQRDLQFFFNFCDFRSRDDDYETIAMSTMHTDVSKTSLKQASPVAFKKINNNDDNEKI
# In short: as §2
# T1 sequence (P25103 whole entry): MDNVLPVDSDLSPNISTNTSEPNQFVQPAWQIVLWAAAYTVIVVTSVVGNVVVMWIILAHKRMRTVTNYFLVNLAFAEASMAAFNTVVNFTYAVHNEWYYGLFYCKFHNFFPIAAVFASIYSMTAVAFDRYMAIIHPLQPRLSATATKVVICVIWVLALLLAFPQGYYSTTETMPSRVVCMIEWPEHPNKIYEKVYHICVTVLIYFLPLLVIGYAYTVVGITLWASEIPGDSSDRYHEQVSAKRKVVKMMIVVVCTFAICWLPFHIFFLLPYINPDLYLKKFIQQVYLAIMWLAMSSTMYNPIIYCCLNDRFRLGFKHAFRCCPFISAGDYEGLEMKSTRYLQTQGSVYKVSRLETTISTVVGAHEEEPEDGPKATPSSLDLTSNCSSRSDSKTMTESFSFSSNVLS
smiles,measurement,setting,value
COCC1OC(OCc2ccc3ccccc3c2)C(NC(=O)CCCN)C(OCc2ccc(-c3ccccc3)cc2)C1O (stereo not shown) [compound 245],A8: inhibition of radioligand binding,"Human neurokinin (NK1); [125I]-Substance P, filtration",+ (“+” indicates greater than 50% inhibition at 10 μM)
same,A3: inhibition of radioligand binding,"Human Melanocortin (MC3); [125I]-NDP-αMSH, FlashPlate",− (“−” indicates less than 50% inhibition at 10 μM)
same,A2: inhibition of radioligand binding,"Human κ-Opioid (KOP); [3H]-Diprenorphine, filtration",− (“−” indicates less than 50% inhibition at 10 μM)
same,A11: inhibition of radioligand binding,"Mouse urotensin (mUR2); [125I]-Urotensin II, FlashPlate",− (“−” indicates less than 50% inhibition at 10 μM)
same,A7: inhibition of radioligand binding,"Human μ-opioid (MOP); [3H]-Naloxone, FlashPlate",− (“−” indicates less than 50% inhibition at 10 μM)
same,A10: inhibition of radioligand binding,"Human opioid (ORL1); [125I]-Nociceptin, FlashPlate",− (“−” indicates less than 50% inhibition at 10 μM)
same,A4: inhibition of radioligand binding,"Human Melanocortin (MC4); [125I]-NDP-αMSH, FlashPlate",− (“−” indicates less than 50% inhibition at 10 μM)
same,A1: inhibition of radioligand binding,"Human δ-opioid (DOP); [3H]-Bremazocine, FlashPlate",− (“−” indicates less than 50% inhibition at 10 μM)
same,A5: inhibition of radioligand binding,"Human melanocortin (MC5); [125I]-NDP-αMSH, FlashPlate",− (“−” indicates less than 50% inhibition at 10 μM)
same,A6: inhibition of radioligand binding,"[1]; [125I]-S36057, FlashPlate",− (“−” indicates less than 50% inhibition at 10 μM)
same,A9: inhibition of radioligand binding,"[2]; [125I]-PYY, FlashPlate",− (“−” indicates less than 50% inhibition at 10 μM)
CO[C@H]1[C@H](O)[C@@H](COCc2ccc(Cl)cc2)OC(OCc2ccc3ccccc3c2)[C@@H]1NC(=O)CNC(=N)N (stereo partly shown) [compound 78],A8 radioligand binding inhibition,Human neurokinin (NK1),+ (“+” indicates greater than 50% inhibition at 10 μM)
same,A3 radioligand binding inhibition,Human Melanocortin (MC3),− (“−” indicates less than 50% inhibition at 10 μM)
same,A2 radioligand binding inhibition,Human κ-Opioid (KOP),− (“−” indicates less than 50% inhibition at 10 μM)
same,A11 radioligand binding inhibition,Mouse urotensin (mUR2),− (“−” indicates less than 50% inhibition at 10 μM)
same,A7 radioligand binding inhibition,Human μ-opioid (MOP),− (“−” indicates less than 50% inhibition at 10 μM)
same,A10 radioligand binding inhibition,Human opioid (ORL1),− (“−” indicates less than 50% inhibition at 10 μM)
same,A4 radioligand binding inhibition,Human Melanocortin (MC4),− (“−” indicates less than 50% inhibition at 10 μM)
same,A1 radioligand binding inhibition,Human δ-opioid (DOP),− (“−” indicates less than 50% inhibition at 10 μM)
same,A5 radioligand binding inhibition,Human melanocortin (MC5),+ (“+” indicates greater than 50% inhibition at 10 μM)
same,A6 radioligand binding inhibition,[1],− (“−” indicates less than 50% inhibition at 10 μM)
same,A9 radioligand binding inhibition,[2],− (“−” indicates less than 50% inhibition at 10 μM)
COC[C@H]1OC(OCc2ccc3ccccc3c2)[C@H](NC(=O)CNC(=N)N)[C@@H](OCc2ccc(-c3ccccc3)cc2)[C@@H]1O (stereo partly shown) [compound 14],A8 radioligand binding inhibition,Human neurokinin (NK1),− (“−” indicates less than 50% inhibition at 10 μM)
same,A3 radioligand binding inhibition,Human Melanocortin (MC3),− (“−” indicates less than 50% inhibition at 10 μM)
same,A2 radioligand binding inhibition,Human κ-Opioid (KOP),− (“−” indicates less than 50% inhibition at 10 μM)
same,A11 radioligand binding inhibition,Mouse urotensin (mUR2),− (“−” indicates less than 50% inhibition at 10 μM)
same,A7 radioligand binding inhibition,Human μ-opioid (MOP),+ (“+” indicates greater than 50% inhibition at 10 μM)
same,A10 radioligand binding inhibition,Human opioid (ORL1),− (“−” indicates less than 50% inhibition at 10 μM)
same,A4 radioligand binding inhibition,Human Melanocortin (MC4),+ (“+” indicates greater than 50% inhibition at 10 μM)
same,A1 radioligand binding inhibition,Human δ-opioid (DOP),− (“−” indicates less than 50% inhibition at 10 μM)
same,A5 radioligand binding inhibition,Human melanocortin (MC5),+ (“+” indicates greater than 50% inhibition at 10 μM)
same,A6 radioligand binding inhibition,[1],+ (“+” indicates greater than 50% inhibition at 10 μM)
same,A9 radioligand binding inhibition,[2],− (“−” indicates less than 50% inhibition at 10 μM)
N=C(N)NCC(=O)N[C@H]1C(OCc2ccc(Cl)cc2)O[C@H](COCc2ccc(Cl)cc2)[C@@H](O)[C@@H]1OCc1ccc2ccccc2c1 (stereo partly shown) [compound 515],"A8: inhibition of radioligand binding, human neurokinin (NK1)",Human neurokinin (NK1); [125I]-Substance P,+ (“+” indicates greater than 50% inhibition at 10 μM)
same,"A3: inhibition of radioligand binding, human melanocortin (MC3)",Human Melanocortin (MC3); [125I]-NDP-αMSH,+ (“+” indicates greater than 50% inhibition at 10 μM)
same,"A2: inhibition of radioligand binding, human κ-opioid (KOP)",Human κ-Opioid (KOP); [3H]-Diprenorphine,− (“−” indicates less than 50% inhibition at 10 μM)
same,"A11: inhibition of radioligand binding, mouse urotensin (mUR2)",Mouse urotensin (mUR2); [125I]-Urotensin II,− (“−” indicates less than 50% inhibition at 10 μM)
same,"A7: inhibition of radioligand binding, human μ-opioid (MOP)",Human μ-opioid (MOP); [3H]-Naloxone,− (“−” indicates less than 50% inhibition at 10 μM)
same,"A10: inhibition of radioligand binding, human opioid (ORL1)","Human opioid (ORL1); [125I]-Nociceptin, 10 µM",+ (“+” indicates greater than 50% inhibition at 10 μM)
same,"A4: inhibition of radioligand binding, human melanocortin (MC4)",Human Melanocortin (MC4); [125I]-NDP-αMSH,+ (“+” indicates greater than 50% inhibition at 10 μM)
same,"A1: inhibition of radioligand binding, human δ-opioid (DOP)",Human δ-opioid (DOP); [3H]-Bremazocine,− (“−” indicates less than 50% inhibition at 10 μM)
same,"A5: inhibition of radioligand binding, human melanocortin (MC5)",Human melanocortin (MC5); [125I]-NDP-αMSH,+ (“+” indicates greater than 50% inhibition at 10 μM)
same,"A6: inhibition of radioligand binding, human melanin-concentrating hormone (MCH1)",[1]; [125I]-S36057,+ (“+” indicates greater than 50% inhibition at 10 μM)
same,"A9: inhibition of radioligand binding, human neuropeptide Y (NPY-Y1)",[2]; [125I]-PYY,− (“−” indicates less than 50% inhibition at 10 μM)
COCC1OC(OCc2ccccc2)C(NC(=O)CN)C(OCc2ccc(-c3ccccc3)cc2)C1O (stereo not shown) [compound 182],"A8 radioligand binding, percentage inhibition",Human neurokinin (NK1); [125I]-Substance P,+ (“+” indicates greater than 50% inhibition at 10 μM)
same,"A3 radioligand binding, percentage inhibition",Human Melanocortin (MC3); [125I]-NDP-αMSH,− (“−” indicates less than 50% inhibition at 10 μM)
same,"A2 radioligand binding, percentage inhibition",Human κ-Opioid (KOP); [3H]-Diprenorphine,− (“−” indicates less than 50% inhibition at 10 μM)
same,"A11 radioligand binding, percentage inhibition",Mouse urotensin (mUR2); [125I]-Urotensin II,− (“−” indicates less than 50% inhibition at 10 μM)
same,"A7 radioligand binding, percentage inhibition",Human μ-opioid (MOP); [3H]-Naloxone,− (“−” indicates less than 50% inhibition at 10 μM)
same,"A10 radioligand binding, percentage inhibition",Human opioid (ORL1); [125I]-Nociceptin,− (“−” indicates less than 50% inhibition at 10 μM)
same,"A4 radioligand binding, percentage inhibition",Human Melanocortin (MC4); [125I]-NDP-αMSH,− (“−” indicates less than 50% inhibition at 10 μM)
same,"A1 radioligand binding, percentage inhibition",Human δ-opioid (DOP); [3H]-Bremazocine,− (“−” indicates less than 50% inhibition at 10 μM)
same,"A5 radioligand binding, percentage inhibition",Human melanocortin (MC5); [125I]-NDP-αMSH,− (“−” indicates less than 50% inhibition at 10 μM)
same,"A6 radioligand binding, percentage inhibition",[1]; [125I]-S36057,− (“−” indicates less than 50% inhibition at 10 μM)
same,"A9 radioligand binding, percentage inhibition",[2]; [125I]-PYY,− (“−” indicates less than 50% inhibition at 10 μM)
